What was measured:
Assay type in all cases: in vivo
[1] = tested on: Japanese bulrush (Scirpus juncoides Roxb.); assay: Test Example 1: herbicidal effect by soil application to paddy field; settings: paddy field soil application; active ingredient 1,000 g per 1 hectare; wettable powder added dropwise to water surface the day after sowing; examined on the 21st day after application
In short: (§1)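 Plants were sown in flooded (3 cm) paddy soil and evaluated for herbicidal effect 21 days after soil application in a greenhouse.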

[2] = tested on: early watergrass (Echinochloa oryzicola Vasing); assay: as above; settings: paddy field soil application; active ingredient 1,000 g per 1 hectare; wettable powder added dropwise to water surface the day after sowing; examined on the 21st day after application
In short: as §1

[3] = tested on: heartshape false pickerelweed (Monochoria vaginalis (Burm.f.) C.Presl); assay: as above; settings: paddy field soil application; active ingredient 1,000 g per 1 hectare; wettable powder added dropwise to water surface the day after sowing; examined on the 21st day after application
In short: as §1

[4] = tested on: barnyardgrass (Echinochloa crus-galli (L.) P. Beauv. var. crus-galli); assay: Test Example 2: herbicidal effect by soil application to upland field; settings: soil surface spray, upland field soil, 1,000 g active ingredient per hectare, 21st day after application
In short: (§2)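 Pre-emergence soil test: seeds sown in pots of field soil, then wettable-powder formulation sprayed on soil surface at 1,000 g active ingredient per hectare in 1,000 L water per hectare. Plants grown in greenhouse; herbicidal effect scored on a standard scale at day 21.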

[5] = tested on: green foxtail (Setaria viridis (L.) P. Beauv.); assay: as above; settings: soil surface spray, upland field soil, 1,000 g active ingredient per hectare, 21st day after application
In short: as §2

[6] = tested on: slender amaranth (Amaranthus viridis L.); assay: as above; settings: soil surface spray, upland field soil, 1,000 g active ingredient per hectare, 21st day after application
In short: as §2

[7] = tested on: velvetleaf (Abutilon theophrasti medicus); assay: as above; settings: soil surface spray, upland field soil, 1,000 g active ingredient per hectare, 21st day after application
In short: as §2

[8] = tested on: barnyardgrass (Echinochloa crus-galli (L.) P. Beauv. var. crus-galli); assay: Test Example 3: herbicidal effect by application to upland field (foliage treatment); settings: foliage treatment, plants grown two weeks, 1,000 g active ingredient per hectare, 14th day after application
In short: (§3)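 Upland foliage test in greenhouse pots of field soil: seedlings sprayed at two weeks post-sowing with 1,000 g/ha active ingredient (wettable powder, 1,000 L water/ha). Scored 14 d after application.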

[9] = tested on: green foxtail (Setaria viridis (L.) P. Beauv.); assay: as above; settings: foliage treatment, plants grown two weeks, 1,000 g active ingredient per hectare, 14th day after application
In short: as §3

[10] = tested on: slender amaranth (Amaranthus viridis L.); assay: as above; settings: foliage treatment, plants grown two weeks, 1,000 g active ingredient per hectare, 14th day after application
In short: as §3

[11] = tested on: velvetleaf (Abutilon theophrasti medicus); assay: as above; settings: foliage treatment, plants grown two weeks, 1,000 g active ingredient per hectare, 14th day after application
In short: as §3

| SMILES | herbicidal effect, Scirpus juncoides Roxb. [1] | herbicidal effect, Echinochloa oryzicola Vasing [2] | herbicidal effect, Monochoria vaginalis (Burm. f.) C. Presl [3] | herbicidal effect (index), Barnyardgrass [4] | herbicidal effect (index), Green Foxtail [5] | herbicidal effect (index), Slender Amaranth [6] | herbicidal effect (index), Velvetleaf [7] | herbicidal effect (index), Barnyardgrass [8] | herbicidal effect (index), Green Foxtail [9] | herbicidal effect (index), Slender Amaranth [10] | herbicidal effect (index), Velvetleaf [11] |
| --- | --- | --- | --- | --- | --- | --- | --- | --- | --- | --- | --- |
| CCOCCn1c(C(F)(F)F)ccc(C(=O)C2=C(O)CCCC2=O)c1=O [I-32] | 5 (90% or more of herbicidal effect and crop phytotoxicity) | 5 (90% or more of herbicidal effect and crop phytotoxicity) | 5 (90% or more of herbicidal effect and crop phytotoxicity) | 5 (90% or more of herbicidal effect and crop phytotoxicity) | 5 (90% or more of herbicidal effect and crop phytotoxicity) | 5 (90% or more of herbicidal effect and crop phytotoxicity) | 5 (90% or more of herbicidal effect and crop phytotoxicity) | 5 (90% or more of herbicidal effect and crop phytotoxicity) | 5 (90% or more of herbicidal effect and crop phytotoxicity) | 5 (90% or more of herbicidal effect and crop phytotoxicity) | 5 (90% or more of herbicidal effect and crop phytotoxicity) |
| COCC(C)n1c(C(F)(F)F)ccc(C(=O)C2=C(O)CCCC2=O)c1=O (centres unmarked) [I-33] | 5 (90% or more of herbicidal effect and crop phytotoxicity) | 5 (90% or more of herbicidal effect and crop phytotoxicity) | 5 (90% or more of herbicidal effect and crop phytotoxicity) | 5 (90% or more of herbicidal effect and crop phytotoxicity) | 3 (50 to less than 70% of herbicidal effect and crop phytotoxicity) | 5 (90% or more of herbicidal effect and crop phytotoxicity) | 5 (90% or more of herbicidal effect and crop phytotoxicity) | 5 (90% or more of herbicidal effect and crop phytotoxicity) | 4 (70 to less than 90% of herbicidal effect and crop phytotoxicity) | 5 (90% or more of herbicidal effect and crop phytotoxicity) | 5 (90% or more of herbicidal effect and crop phytotoxicity) |
| COCCOCCn1c(C(F)(F)F)ccc(C(=O)C2=C(O)CCCC2=O)c1=O [I-34] | 5 (90% or more of herbicidal effect and crop phytotoxicity) | 5 (90% or more of herbicidal effect and crop phytotoxicity) | 5 (90% or more of herbicidal effect and crop phytotoxicity) | 5 (90% or more of herbicidal effect and crop phytotoxicity) | 5 (90% or more of herbicidal effect and crop phytotoxicity) | 5 (90% or more of herbicidal effect and crop phytotoxicity) | 5 (90% or more of herbicidal effect and crop phytotoxicity) | 5 (90% or more of herbicidal effect and crop phytotoxicity) | 5 (90% or more of herbicidal effect and crop phytotoxicity) | 5 (90% or more of herbicidal effect and crop phytotoxicity) | 5 (90% or more of herbicidal effect and crop phytotoxicity) |
| N#CCCn1c(C(F)(F)F)ccc(C(=O)C2=C(O)CCCC2=O)c1=O [I-44] | 5 (90% or more of herbicidal effect and crop phytotoxicity) | 5 (90% or more of herbicidal effect and crop phytotoxicity) | 5 (90% or more of herbicidal effect and crop phytotoxicity) | 5 (90% or more of herbicidal effect and crop phytotoxicity) | 5 (90% or more of herbicidal effect and crop phytotoxicity) | 5 (90% or more of herbicidal effect and crop phytotoxicity) | 5 (90% or more of herbicidal effect and crop phytotoxicity) | 5 (90% or more of herbicidal effect and crop phytotoxicity) | 5 (90% or more of herbicidal effect and crop phytotoxicity) | 5 (90% or more of herbicidal effect and crop phytotoxicity) | 5 (90% or more of herbicidal effect and crop phytotoxicity) |
| CSCn1c(C(F)(F)F)ccc(C(=O)C2=C(O)CCCC2=O)c1=O [I-46] | 5 (90% or more of herbicidal effect and crop phytotoxicity) | 5 (90% or more of herbicidal effect and crop phytotoxicity) | 5 (90% or more of herbicidal effect and crop phytotoxicity) | 5 (90% or more of herbicidal effect and crop phytotoxicity) | 3 (50 to less than 70% of herbicidal effect and crop phytotoxicity) | 5 (90% or more of herbicidal effect and crop phytotoxicity) | 5 (90% or more of herbicidal effect and crop phytotoxicity) | 5 (90% or more of herbicidal effect and crop phytotoxicity) | 3 (50 to less than 70% of herbicidal effect and crop phytotoxicity) | 5 (90% or more of herbicidal effect and crop phytotoxicity) | 5 (90% or more of herbicidal effect and crop phytotoxicity) |
| CCSCn1c(C(F)(F)F)ccc(C(=O)C2=C(O)CCCC2=O)c1=O [I-48] | 5 (90% or more of herbicidal effect and crop phytotoxicity) | 5 (90% or more of herbicidal effect and crop phytotoxicity) | 5 (90% or more of herbicidal effect and crop phytotoxicity) | 5 (90% or more of herbicidal effect and crop phytotoxicity) | 4 (70 to less than 90% of herbicidal effect and crop phytotoxicity) | 5 (90% or more of herbicidal effect and crop phytotoxicity) | 5 (90% or more of herbicidal effect and crop phytotoxicity) | 5 (90% or more of herbicidal effect and crop phytotoxicity) | 5 (90% or more of herbicidal effect and crop phytotoxicity) | 5 (90% or more of herbicidal effect and crop phytotoxicity) | 5 (90% or more of herbicidal effect and crop phytotoxicity) |
| CCS(=O)(=O)Cn1c(C(F)(F)F)ccc(C(=O)C2=C(O)CCCC2=O)c1=O [I-49] | 5 (90% or more of herbicidal effect and crop phytotoxicity) | 5 (90% or more of herbicidal effect and crop phytotoxicity) | 5 (90% or more of herbicidal effect and crop phytotoxicity) | 5 (90% or more of herbicidal effect and crop phytotoxicity) | 4 (70 to less than 90% of herbicidal effect and crop phytotoxicity) | 5 (90% or more of herbicidal effect and crop phytotoxicity) | 5 (90% or more of herbicidal effect and crop phytotoxicity) | 5 (90% or more of herbicidal effect and crop phytotoxicity) | 5 (90% or more of herbicidal effect and crop phytotoxicity) | 5 (90% or more of herbicidal effect and crop phytotoxicity) | 5 (90% or more of herbicidal effect and crop phytotoxicity) |
